# From patent US8399480B2, “Hydroxymethyl pyrrolidines as beta 3 adrenergic receptor agonists” (Merck Sharp & Dohme Corp., priority 2008, dated 2013)
# Target: T1, human β3 adrenergic receptor (Homo sapiens, UniProt P13945)
# T1 construct: expressed in transfected cells; host or cells: Chinese hamster ovary (CHO) cells, stably transfected
# Test: Functional assay: cAMP production (LANCE TR-FRET) in CHO cells stably transfected with cloned β3 adrenergic receptor
# Assay type: cell-based
# Settings: Table 4; human β3 functional activity; read-out: Human β Binding
# Description: Chinese hamster ovary (CHO) cells, stably transfected with the cloned β-adrenergic receptor (β1, β2 or β3) are harvested after 3 days of subculturing. Harvesting of cells is done with Enzyme-free Dissociation Media (Specialty Media). Cells are then counted and resuspended in assay buffer (Hank's Balanced salt solution supplemented with 5 mM HEPES, 0.1% BSA) containing a phosphodiesterase inhibitor (IBMX, 0.6 mM). The reaction is initiated by mixing 6,000 cells in 6 μL with 6 μL Alexa Fluor labeled cAMP antibody (LANCE™ kit) which is then added to an assay well containing 12 μL of compound (diluted in assay buffer to 2× final concentration). The reaction proceeds for 30 min at room temperature and is terminated by the addition of 24 μL detection buffer (LANCE™ kit). The assay plate is then incubated for 1 h at room temperature and time-resolved fluorescence measured on a Perkin Elmer Envision reader or equivalent. The unknown cAMP level is determined by comparing fluorescence levels to a cAMP standard curve.
# The non-selective, full agonist β-adrenergic ligand isoproterenol is used at all three receptors to determine maximal stimulation. […] Data are analyzed using Microsoft Excel and Graphpad Prism or an internally developed data analysis software package.
# T1 sequence (P13945 whole entry): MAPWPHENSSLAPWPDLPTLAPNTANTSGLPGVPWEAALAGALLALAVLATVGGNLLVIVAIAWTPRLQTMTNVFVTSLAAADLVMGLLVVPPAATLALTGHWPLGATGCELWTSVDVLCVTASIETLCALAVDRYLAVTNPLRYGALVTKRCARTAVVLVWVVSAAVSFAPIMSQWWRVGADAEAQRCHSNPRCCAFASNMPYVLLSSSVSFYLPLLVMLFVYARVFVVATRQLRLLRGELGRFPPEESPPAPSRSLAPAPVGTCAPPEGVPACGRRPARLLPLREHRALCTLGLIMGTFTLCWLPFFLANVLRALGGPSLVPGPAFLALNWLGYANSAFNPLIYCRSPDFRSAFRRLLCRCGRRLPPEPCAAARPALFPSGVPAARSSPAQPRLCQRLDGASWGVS
row,SMILES,EC50 [nM]
1,O=C(Nc1ccc(C[C@@H]2CC[C@H]([C@H](O)c3ccccc3)N2)cc1)C1CCCN1c1cc(Cl)cc(Cl)c1 (stereo partly shown) [Example 35],11 to 100
2,O=C(Cc1nnc(-c2cc(Cl)cc(Cl)c2)[nH]1)Nc1ccc(C[C@@H]2CC[C@H]([C@H](O)c3ccccc3)N2)cc1 [Example 26],101 to 1000
3,O=C(Nc1ccc(C[C@@H]2CC[C@H]([C@H](O)c3ccccc3)N2)cc1)c1ccccc1N1CCCC1 [Example 7],101 to 1000

# The next lines start with the values.
row,EC50 [nM],SMILES
1,1 to 10,O=C(Cn1nc2ccccc2n1)Nc1ccc(C[C@@H]2CC[C@H]([C@H](O)c3ccccc3)N2)cc1 [Example 5]
2,1 to 10,Cc1nc(C)c(CC(=O)Nc2ccc(C[C@@H]3CC[C@H]([C@H](O)c4ccccc4)N3)cc2)s1 [Example 10]
3,1 to 10,O=C(Cc1nnc(-c2ccn[nH]2)[nH]1)Nc1ccc(C[C@@H]2CC[C@H]([C@H](O)c3ccccc3)N2)cc1 [Example 27]
4,11 to 100,O=C(Nc1ccc(C[C@@H]2CC[C@H]([C@H](O)c3ccccc3)N2)cc1)c1ccccc1-n1nccn1 [Example 11]
5,11 to 100,O=C(Cn1ncnn1)Nc1ccc(C[C@@H]2CC[C@H]([C@H](O)c3ccccc3)N2)cc1 [Example 78]
6,1 to 10,O=C(Cn1cnc2sccc2c1=O)Nc1ccc(C[C@@H]2CC[C@H]([C@H](O)c3ccccc3)N2)cc1 [Example 55]
7,1 to 10,O=C(Cn1nc(Cl)ccc1=O)Nc1ccc(C[C@@H]2CC[C@H]([C@H](O)c3ccccc3)N2)cc1 [Example 51]
8,11 to 100,Cn1nnnc1CC(=O)Nc1ccc(C[C@@H]2CC[C@H]([C@H](O)c3ccccc3)N2)cc1 [Example 76]
9,1 to 10,O=C(Cn1ncc2ccccc21)Nc1ccc(C[C@@H]2CC[C@H]([C@H](O)c3ccccc3)N2)cc1 [Example 6]
10,11 to 100,CC1=NN(CC(=O)Nc2ccc(C[C@@H]3CC[C@H]([C@H](O)c4ccccc4)N3)cc2)C(=O)C1 [Example 83]
11,1 to 10,Cc1cccc2c(=O)n(CC(=O)Nc3ccc(C[C@@H]4CC[C@H]([C@H](O)c5ccccc5)N4)cc3)cnc12 [Example 58]
12,11 to 100,O=C(Cc1ncccn1)Nc1ccc(C[C@@H]2CC[C@H]([C@H](O)c3ccccc3)N2)cc1 [Example 46]
13,11 to 100,O=C(Cc1nnc(-c2ccncc2)[nH]1)Nc1ccc(C[C@@H]2CC[C@H]([C@H](O)c3ccccc3)N2)cc1 [Example 25]
14,101 to 1000,O=C(CC1NC(=O)NC1=O)Nc1ccc(C[C@@H]2CC[C@H]([C@H](O)c3ccccc3)N2)cc1 (stereo partly shown) [Example 69]

# Same assay, conditions: Table 5; read-out: Human β3 Functional
row,SMILES,EC50 [nM]
1,"Cc1n[nH]c2c1CCC2C(=O)Nc1ccc(C[C@@H]2CC[C@H]([C@H](O)c3ccccc3)N2)cc1 (single isomer, unassigned) [Example 138]",11 to 100
2,"O=C(Nc1ccc(C[C@@H]2CC[C@H]([C@H](O)c3ccccc3)N2)cc1)C1CCc2sc(Br)nc21 (single isomer, unassigned) [Example 145]",< 1
3,"CC(C(=O)Nc1ccc(C[C@@H]2CC[C@H]([C@H](O)c3ccccc3)N2)cc1)n1nncc1C(=O)O (single isomer, unassigned) [Example 196]",1 to 10
4,"Cc1nc2c(s1)CCCC2C(=O)Nc1ccc(C[C@@H]2CC[C@H]([C@H](O)c3ccccc3)N2)cc1 (single isomer, unassigned) [Example 120]",11 to 100
5,"O=C(Nc1ccc(C[C@@H]2CC[C@H]([C@H](O)c3ccccc3)N2)cc1)C1CCCc2ccccc21 (single isomer, unassigned) [Example 113]",101 to 1000
6,"CCC(C(=O)Nc1ccc(C[C@@H]2CC[C@H]([C@H](O)c3ccccc3)N2)cc1)n1nccn1 (single isomer, unassigned) [Example 216]",1 to 10
7,"COC(=O)c1cnnn1C(C)C(=O)Nc1ccc(C[C@@H]2CC[C@H]([C@H](O)c3ccccc3)N2)cc1 (single isomer, unassigned) [Example 195]",1 to 10
8,"O=C(Nc1ccc(C[C@@H]2CC[C@H]([C@H](O)c3ccccc3)N2)cc1)C1CCc2ncnn21 (single isomer, unassigned) [Example 128]",11 to 100
9,"COC(=O)c1cnnn1C(C)C(=O)Nc1ccc(C[C@@H]2CC[C@H]([C@H](O)c3ccccc3)N2)cc1 (single isomer, unassigned) [Example 194]",11 to 100
10,"O=C(Nc1ccc(C[C@@H]2CC[C@H]([C@H](O)c3ccccc3)N2)cc1)C1CCCn2nnnc21 (single isomer, unassigned) [Example 153]",11 to 100
11,"O=C(Nc1ccc(C[C@@H]2CC[C@H]([C@H](O)c3ccccc3)N2)cc1)C1CCc2sc(Br)nc21 (single isomer, unassigned) [Example 144]",1 to 10

# Now from value to compound:
row,EC50 [nM],SMILES
1,11 to 100,"CC(C(=O)Nc1ccc(C[C@@H]2CC[C@H]([C@H](O)c3ccccc3)N2)cc1)n1ccnn1 (single isomer, unassigned) [Example 182]"
2,1 to 10,"CC(C(=O)Nc1ccc(C[C@@H]2CC[C@H]([C@H](O)c3ccccc3)N2)cc1)n1cnnn1 (single isomer, unassigned) [Example 172]"
3,1 to 10,"CC(C(=O)Nc1ccc(C[C@@H]2CC[C@H]([C@H](O)c3ccccc3)N2)cc1)n1cccnc1=O (single isomer, unassigned) [Example 160]"
4,< 1,"CC(C(=O)Nc1ccc(C[C@@H]2CC[C@H]([C@H](O)c3ccccc3)N2)cc1)c1nccs1 (single isomer, unassigned) [Example 200]"
5,1 to 10,"CC(C(=O)Nc1ccc(C[C@@H]2CC[C@H]([C@H](O)c3ccccc3)N2)cc1)n1cccn1 (single isomer, unassigned) [Example 181]"

# Same assay, conditions: Table 7; β3AR-cAMP; read-out: Human β3 Functional
row,EC50 [nM],SMILES
1,1000 to 3000,O=S(=O)(Nc1ccc(C[C@@H]2CC[C@H]([C@H](O)c3ccccc3)N2)cc1)c1cccc2ccncc12 [Example 236]
2,101 to 1000,O=S(=O)(Cc1ccccn1)Nc1ccc(C[C@@H]2CC[C@H]([C@H](O)c3ccccc3)N2)cc1 [Example 248]
3,1000 to 3000,O=S(=O)(Cc1cccnc1)Nc1ccc(C[C@@H]2CC[C@H]([C@H](O)c3ccccc3)N2)cc1 [Example 249]

# Same assay, conditions: Table 8; read-out: Human β3 Functional
row,EC50 [nM],SMILES
1,101 to 1000,O=C(Nc1ccc(C[C@@H]2CC[C@H]([C@H](O)c3ccccc3)N2)cc1)N1CCC2(CCOC2=O)CC1 [Example 258]

# Same assay, conditions: Table 9; read-out: Human β^3 Functional
row,EC50 [nM],SMILES
1,< 1,CC(NC(=O)c1ccccc1)C(=O)Nc1ccc(C[C@@H]2CC[C@H]([C@H](O)c3ccccc3)N2)cc1 (stereo partly shown) [Example 272]

# Same assay, conditions: Table 10; β3AR-cAMP; read-out: Human β3 Functional
row,EC50 [nM],SMILES
1,11 to 100,"Nc1nc2c(s1)CCC2C(=O)Nc1ccc(CC2CCC(C(O)c3cccc(F)c3)N2)cc1 (single isomer, unassigned) [Example 276]"
2,< 1,"Nc1nc2c(s1)CCC2C(=O)Nc1ccc(CC2CCC(C(O)c3cccc(F)c3)N2)cc1 (single isomer, unassigned) [Example 277]"

# Same assay, conditions: Table 12; read-out: Human β3 Functional
row,EC50 [nM],SMILES
1,< 1,O=C(Nc1ccc(C[C@@H]2CC[C@H]([C@H](O)c3ccc(F)c(F)c3)N2)cc1)[C@@H]1CCc2scnc21 [Example 290]
2,< 1,"Nc1nc2c(s1)CCC2C(=O)Nc1ccc(CC2CCC(C(O)c3ccc(F)c(F)c3)N2)cc1 (single isomer, unassigned) [Example 289]"

# Same assay, conditions: given as a range; cAMP, CHO cells; read-out: human β3 functional activity
row,EC50 [nM],SMILES
1,11 to 100,"Nc1nc(CC(=O)Nc2ccc(C[C@H]3CC[C@H]([C@H](O)c4ccccc4)N3)cc2)cs1 [Example 3, 2-(2-Amino-1,3-thiazol-4-yl)-N-[4-({(2R,5R)-[(R)hydroxy(phenyl)methyl]pyrrolidinyl}methyl)phenyl]acetamide]"
2,11 to 100,"Nc1nc(CC(=O)Nc2ccc(C[C@@H]3CC[C@H]([C@H](O)c4ccccc4)N3)cc2Br)cs1 [Example 312, 2-(2-Amino-1,3-thiazol-4-yl)-N-[2-bromo-4-({(2S,5R)-5-[(R)-hydroxy(phenyl)methyl]pyrrolidin-2-yl}methyl)phenyl]acetamide]"
3,1 to 10,"O=S(=O)(Nc1ccc(C[C@@H]2CC[C@H]([C@H](O)c3ccccc3)N2)cc1)c1ccc(-c2nc(-c3ccc(C(F)(F)F)cc3)cs2)cc1 [Example 233, N-[4-({(2S,5R)-5-[(R)-hydroxy(phenyl)methyl]pyrrolidin-2-yl}methyl)phenyl]-4-{4-[4-(trifluoromethyl)phenyl]-1,3-thiazol-2-yl}benzenesulfonamide]"

# Same assay, conditions: human β3 functional activity, shown as ranges; Table 13; read-out: Human β3 Functional
row,EC50 [nM],SMILES
1,11 to 100,O=C(Cn1ncccc1=O)Nc1ccc(C[C@@H]2CC[C@H]([C@H](O)c3cccc(Cl)c3)N2)cc1 [Example 305]
2,11 to 100,O=C(Nc1ccc(C[C@@H]2CC[C@H]([C@H](O)c3cccc(Cl)c3)N2)cc1)[C@H]1CCc2scnc21 [Example 296]
3,11 to 100,"O=C(Nc1ccc(CC2CCC(C(O)c3cccc(Cl)c3)N2)cc1)C1CCc2sc(Br)nc21 (single isomer, unassigned) [Example 299]"
4,< 1,O=C(Nc1ccc(C[C@@H]2CC[C@H]([C@H](O)c3cccc(Cl)c3)N2)cc1)[C@@H]1CCc2scnc21 [Example 297]
5,< 1,"Nc1nc2c(s1)CCC2C(=O)Nc1ccc(CC2CCC(C(O)c3cccc(Cl)c3)N2)cc1 (single isomer, unassigned) [Example 295]"

# Same assay, conditions: human β3 functional activity, shown as ranges; Table 14; read-out: Human β3 Functional
row,EC50 [nM],SMILES
1,< 1,"Nc1nc2c(s1)CCC2C(=O)Nc1ccc(CC2CCC(C(O)c3cccc(Cl)c3)N2)cc1 (single isomer, unassigned) [Example 310]"
2,< 1,"Nc1nc2c(s1)CCC2C(=O)Nc1ccc(CC2CCC(C(O)c3cccc(F)c3)N2)cc1 (single isomer, unassigned) [Example 306]"
